According to patent US20170258970A1, “POLYMER-DRUG CONJUGATE BASED ON A POLYISOOLEFIN-BASED COPOLYMER” (ARLANXEO Singapore Pte. Ltd., priority 2014, published 2017):

System: C2C12 mouse myoblast cells
Test: MTT assay of film leachate toxicity
Format: cell-based
Settings: 24 h exposure
Description: Toxicity studies were also performed using the MTT assay to evaluate whether films of 3.0a-c on stainless steel would release toxic levels of paclitaxel or any other leachate during a defined incubation period in cell culture media.
Preparation of leachate: Test samples were melt-pressed to a thickness of 0.4 mm. The melt pressed film was then cut into squares of 1 cm×1 cm. Samples were sterilized by washing with 70% ethanol and subsequently dried for 2 h under UV light. […]
MTT assay: C2C12 mouse myoblast cells were seeded in a Nunclon™ 96-well U bottom transparent polystrol plate to obtain 10,000 cells/well in 100 μL of DMEM containing serum, glutamax and antibiotics as described above. […] After shaking (1 second, 2 mm amp, 654 rpm), the absorbance of the wells at 540 nm was read using an M1000-Pro plate reader (Tecan). The absorbance of wells not containing cells but treated by all of the above steps was subtracted as a background and the cell viability was calculated relative to wells containing cells that were exposed to just culture medium. No (0%) cell viability was detected for the cells exposed to the highest concentrations of the positive control sodium lauryl sulfate, confirming the sensitivity of the assay.

**Q.** With `CCCCCCCCCCCCOS(=O)(=O)[O-].[Na+]` [SDS, sodium dodecyl sulfate] as the molecule, how does the cell viability (at 0.2 μg/mL) read?
**A.** < 10%

**Q.** And the cell viability (highest concentrations of the positive control)?
**A.** 0%
